Experimental data taken from patent US20060141044A1, “Pharmaceutical compositions based on diclofenac derivate” (priority 2003, published 2006).

Test: Aqueous solubility / Biopharmaceutical Classification System classification
Format: physicochemical
Text: 2-[2-(nitrooxy)ethoxy]ethyl {2-[(2,6-dichlorophenyl)amino]phenyl}acetate is a lipophilic drug with poor aqueous solubility and a low melting point. Said drug can be classified into class 2 according to the Biopharmaceutical Classification System proposed by Amidon et al. (Pharm. Res. 12 (1995) pp. 413420). Compounds of this class are characterised by their low aqueous solubility but reasonably well permeability. A biopharmaceutical problem with these drugs is that their absorption from the gastro-intestinal tract (GIT) may be dissolution rate limited, resulting in poor bioavailibility upon oral administration. One object of the invention is to provide an oral drug delivery composition with satisfactory bioavailability.

aqueous solubility (qualitative statement): poor
class according to the Biopharmaceutical Classification System (system proposed by Amidon et al.): class 2
Compound: O=C(Cc1ccccc1Nc1c(Cl)cccc1Cl)OCCOCCO[N+](=O)[O-] [2-[2-(nitrooxy)ethoxy]ethyl {2-[(2,6-dichlorophenyl)amino]phenyl}acetate]
